Patent US11931569B2, “Method for changing blood brain barrier permeability” (TEL HASHOMER MEDICAL RESEARCH, INFRASTRUCTURE AND SERVICES …, priority 2018, dated 2024)

Columns and labels:
[1] = tested on: in vitro BBB model (CD34+-derived ECs co-cultured with bovine brain pericytes on Transwell inserts); type: in vitro ADME, human
Description: Reference is made to FIG. 2A that schematically illustrates an in vitro BBB model 100 grown in Transwell inserts 200 (3401-Costar, Corning, USA). The in vitro human BBB model was generated as follows: CD34^+-derived ECs 250 were seeded onto matrigel-coated (BD Biosciences, USA) apical side 206 of a Transwell insert membrane 204. Primary bovine brain pericytes 252 were seeded on the gelatin-coated basolateral side 208 of the same Transwell inserts 2-24 h before the seeding of the ECs. […]
PEFs were applied to Transwell inserts 200 using an electroporator power supply (BTX 830; Harvard Apparatus, Holliston, MA). […] Given the parameters of the electrode and based on a finite elements model of the described system, the EF generated between the electrodes by the applied voltage can be approximated as uniform across the ECs monolayer and can be calculated by dividing the Voltage by the electrodes distance. […]
50 μl of a solution containing 0.5 mg/ml NaF in PBS was added to the luminal (apical) side of each Transwell insert 200 one minute prior to PEFs application. […] A sample of medium 102 collected from under basolateral side 208 was collected and the samples' fluorescence was measured using TECAN pro200 plate reader (485/538 nm excitation/emission). […]

CNS-1 glioma cell line = assay: efficacy of Paclitaxel across the in vitro BBB model after PEF application (glioma confluency); type: cell-based; details: 200 nM Paclitaxel on apical side, 2 h with insert, followed 3 days
Description: Reference is made to FIG. 5A. To study the effect of PEFs application on BBB permeability for Paclitaxel (Taxol®), the in vitro BBB model 100 as shown FIG. 2A was modified by seeding a CNS-1 glioma cell line 254 on a bottom surface 103 of cell culture well 101 (40,000 cells per well), into which the BLEC co-culture system grown on membrane 204 of Transwell insert 200 was also grown. When the glioma cell line was at about 16±0.5% confluency, 200 nM Paclitaxel was added into ECM media 102 in the apical side of Transwell insert 200 and PEFs were applied at one of various settings, then incubated for 2 hours after which time the Transwell insert was removed. […] Glioma cell line 254 was then further incubated for three days and the level of confluency was measured at 2 hours, 1 day, 2 days, and 3 days following Paclitaxel administration.
The results as shown by way of example in FIG. 5B indicate that low pulse-count, low frequency, low EF strength PEFs induce sufficient BBB disruption to allow a therapeutic dose of Paclitaxel to traverse the in vitro BBB model and reach the glioma cell line.

O=C([O-])c1ccccc1-c1c2ccc(=O)cc-2oc2cc([O-])ccc12.[Na+].[Na+] [NaF, sodium fluorescein]
increase in permeability [1]: 40±9%

CC(=O)O[C@H]1C(=O)[C@@]2(C)[C@H]([C@H](OC(=O)c3ccccc3)[C@]3(O)C[C@H](OC(=O)[C@H](O)[C@@H](NC(=O)c4ccccc4)c4ccccc4)C(C)=C1C3(C)C)[C@]1(OC(C)=O)CO[C@@H]1C[C@@H]2O [Paclitaxel]
glioma cell growth / confluency (CNS-1 glioma cell line; 10 pulses, 74 V/cm, 1 Hz): substantially disrupt its growth
glioma cell growth / confluency (CNS-1 glioma cell line; 20 pulses, 30 V/cm, 1 Hz): glioma growth was not significantly retarded
glioma cell growth / confluency (CNS-1 glioma cell line; 99 pulses, 30 V/cm, 1 Hz): level of retardation of glioma growth was equivalent to application of 10 pulses of PEFs at a field strength of 74 V/cm
glioma cell growth / confluency (CNS-1 glioma cell line; control, no PEF application): reach full confluency after 3 days
